From patent US9108944B2, “Androgen receptor modulators and uses thereof” (ARAGON PHARMACEUTICALS, INC., priority 2010, dated 2015) come the findings set out here.

Assay [1] deals with T1, AR-VP16 (Homo sapiens, UniProt P10275).
T1 sequence (P10275 560-920 limits assumed): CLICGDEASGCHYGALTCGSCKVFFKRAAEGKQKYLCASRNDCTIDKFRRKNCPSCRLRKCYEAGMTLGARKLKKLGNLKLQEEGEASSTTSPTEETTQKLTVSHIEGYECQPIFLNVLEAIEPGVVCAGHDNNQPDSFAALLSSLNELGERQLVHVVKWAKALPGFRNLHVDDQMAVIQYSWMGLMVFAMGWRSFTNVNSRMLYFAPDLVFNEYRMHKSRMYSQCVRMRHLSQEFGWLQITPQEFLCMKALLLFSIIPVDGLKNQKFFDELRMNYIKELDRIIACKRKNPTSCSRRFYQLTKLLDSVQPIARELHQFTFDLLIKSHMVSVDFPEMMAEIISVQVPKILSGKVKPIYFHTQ
Description: AR-VP16 DNA Binding Assay, agonist mode (HepG2 cells). Type of assay: cell-based. To be noted: Emax >20x DMSO control = agonist.

Assay [2] concerns the target T1, AR-VP16. Description: AR-VP16 DNA Binding Assay, antagonist mode (HepG2 cells, 0.1 nM R1881). The format is cell-based. Summed up:
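Transfected HepG2 cells expressing AR-VP16 received serially diluted compound in charcoal-stripped-serum RPMI the day after transfection, with 0.1 nM R1881 (final) added only for antagonist testing. After 48 h, cells were lysed for measurement.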

Bounds are passed on as bounds.

In general, IC50 refers to the concentration that inhibits the measured activity by half. Read a low IC50 as greater potency. Consider `N#Cc1ncc(N2C(=O)C3(CCC3)N(c3ccc(F)c(OCCCc4ccccc4)c3)C2=S)cc1C(F)(F)F` [Compound 163, 5-(5-(4-Fluoro-3-(3-phenylpropoxy)phenyl)-8-oxo-6-thioxo-5,7-diazaspiro[3.4]octan-7-yl)-3-(trifluoromethyl)picolinonitrile], for which the “ARVP16 DNA Binding Assay (Agonist mode): Agonist?” value (“ARVP16 DNA Binding Assay” for short) on AR-VP16 [1] was “No (Agonist defined as a compound whose Emax in the ARVP16 DNA Binding Assay (Agonist mode) is >20x DMSO control)”. This compound registered an IC50 on AR-VP16 [2] greater than 1000 nM.
In the same order, the values of `N#Cc1ncc(N2C(=O)C3(CCC3)N(c3ccc(F)c(OCCN4CCOCC4)c3)C2=S)cc1C(F)(F)F` [Compound 164, 5-(5-(4-Fluoro-3-(2-morpholinoethoxy)phenyl)-8-oxo-6-thioxo-5,7-diazaspiro[3.4]octan-7-yl)-3-(trifluoromethyl)picolinonitrile] are “No (Agonist defined as a compound whose Emax in the ARVP16 DNA Binding Assay (Agonist mode) is >20x DMSO control)” and greater than 1000 nM.
For the compound `N#Cc1ncc(N2C(=O)C3(CCC3)N(c3ccc(F)c(OCCCN4CCOCC4)c3)C2=S)cc1C(F)(F)F` [Compound 165, 5-(5-(4-Fluoro-3-(3-morpholinopropoxy)phenyl)-8-oxo-6-thioxo-5,7-diazaspiro[3.4]octan-7-yl)-3-(trifluoromethyl)picolinonitrile], the “ARVP16 DNA Binding Assay” value at AR-VP16 [1] is “No (Agonist defined as a compound whose Emax in the ARVP16 DNA Binding Assay (Agonist mode) is >20x DMSO control)”. Also, the IC50 at AR-VP16 [2] is greater than 1000 nM.
The corresponding values for `CN1CCN(CCOc2cc(N3C(=S)N(c4cnc(C#N)c(C(F)(F)F)c4)C(=O)C34CCC4)ccc2F)CC1` [Compound 166, 5-(5-(4-Fluoro-3-(2-(4-methylpiperazin-1-yl)ethoxy)phenyl)-8-oxo-6-thioxo-5,7-diazaspiro[3.4]octan-7-yl)-3-(trifluoromethyl)picolinonitrile] are “No (Agonist defined as a compound whose Emax in the ARVP16 DNA Binding Assay (Agonist mode) is >20x DMSO control)” and greater than 1000 nM.
Consider `CN1CCN(CCCOc2cc(N3C(=S)N(c4cnc(C#N)c(C(F)(F)F)c4)C(=O)C34CCC4)ccc2F)CC1` [Compound 167, 5-(5-(4-Fluoro-3-(3-(4-methylpiperazin-1-yl)propoxy)phenyl)-8-oxo-6-thioxo-5,7-diazaspiro[3.4]octan-7-yl)-3-(trifluoromethyl)picolinonitrile], for which the “ARVP16 DNA Binding Assay” value at AR-VP16 [1] is reported as “No (Agonist defined as a compound whose Emax in the ARVP16 DNA Binding Assay (Agonist mode) is >20x DMSO control)”. This compound gave an IC50 at AR-VP16 [2] greater than 1000 nM.
In the same order, the values of `COCCOc1ccc(N2C(=S)N(c3cnc(C#N)c(C)c3)C(=O)C23CCC3)cc1F` [Compound 168, 5-(5-(3-Fluoro-4-(2-methoxyethoxy)phenyl)-8-oxo-6-thioxo-5,7-diazaspiro[3.4]octan-7-yl)-3-methylpicolinonitrile] are “No (Agonist defined as a compound whose Emax in the ARVP16 DNA Binding Assay (Agonist mode) is >20x DMSO control)” and less than 1000 nM.
`Cc1cc(N2C(=O)C3(CCC3)N(c3ccc(OCCc4ccccn4)c(F)c3)C2=S)cnc1C#N` [Compound 169, 5-(5-(3-Fluoro-4-(2-(pyridin-2-yl)ethoxy)phenyl)-8-oxo-6-thioxo-5,7-diazaspiro[3.4]octan-7-yl)-3-methylpicolinonitrile]: the “ARVP16 DNA Binding Assay” value on AR-VP16 [1] is “No (Agonist defined as a compound whose Emax in the ARVP16 DNA Binding Assay (Agonist mode) is >20x DMSO control)”. The compound also gave a 50% inhibitory concentration (IC50) on AR-VP16 [2] of less than 1000 nM.
In the same order, the values of `Cc1cc(N2C(=O)C3(CCC3)N(c3ccc(OCCN4CCN(C)CC4)c(F)c3)C2=S)cnc1C#N` [Compound 170, 5-(5-(3-Fluoro-4-(2-(4-methylpiperazin-1-yl)ethoxy)phenyl)-8-oxo-6-thioxo-5,7-diazaspiro[3.4]octan-7-yl)-3-methylpicolinonitrile] are “Yes (Agonist defined as a compound whose Emax in the ARVP16 DNA Binding Assay (Agonist mode) is >20x DMSO control)” and less than 1000 nM.
The corresponding values for `N#Cc1ncc(N2C(=O)C3(CCC3)N(c3ccc(OCCN4CCSCC4)c(F)c3)C2=S)cc1C(F)(F)F` [Compound 175, 5-(5-(3-Fluoro-4-(2-thiomorpholinoethoxy)phenyl)-8-oxo-6-thioxo-5,7-diazaspiro[3.4]octan-7-yl)-3-(trifluoromethyl)picolinonitrile] are “No (Agonist defined as a compound whose Emax in the ARVP16 DNA Binding Assay (Agonist mode) is >20x DMSO control)” and less than 1000 nM.
In the case of `CN1CCN(CCOc2ccc(N3C(=S)N(c4cnc(C#N)c(C(F)(F)F)c4)C(=O)C34CCC4)cc2)CC1` [Compound 178, 5-(5-(4-(2-(4-Methylpiperazin-1-yl)ethoxy)phenyl)-8-oxo-6-thioxo-5,7-diazaspiro[3.4]octan-7-yl)-3-(trifluoromethyl)picolinonitrile], the “ARVP16 DNA Binding Assay” value at AR-VP16 [1] is given as “No (Agonist defined as a compound whose Emax in the ARVP16 DNA Binding Assay (Agonist mode) is >20x DMSO control)”. Moreover, on AR-VP16 [2], the IC50 was less than 1000 nM.
The corresponding values for `N#Cc1ncc(N2C(=O)C3(CCC3)N(c3ccc(OCCC4CCOCC4)c(F)c3)C2=S)cc1C(F)(F)F` [Compound 180, 5-(5-(3-Fluoro-4-(2-(tetrahydro-2H-pyran-4-yl)ethoxy)phenyl)-8-oxo-6-thioxo-5,7-diazaspiro[3.4]octan-7-yl)-3-(trifluoromethyl)picolinonitrile] are “Yes (Agonist defined as a compound whose Emax in the ARVP16 DNA Binding Assay (Agonist mode) is >20x DMSO control)” and less than 1000 nM.
For the compound `CN1CCN(CCCOc2ccc(N3C(=S)N(c4cnc(C#N)c(C(F)(F)F)c4)C(=O)C34CCC4)c(F)c2)CC1` [Compound 184, 5-(5-(2-Fluoro-4-(3-(4-methylpiperazin-1-yl)propoxy)phenyl)-8-oxo-6-thioxo-5,7-diazaspiro[3.4]octan-7-yl)-3-(trifluoromethyl)picolinonitrile], the “ARVP16 DNA Binding Assay” value on AR-VP16 [1] is “Yes (Agonist defined as a compound whose Emax in the ARVP16 DNA Binding Assay (Agonist mode) is >20x DMSO control)”. Moreover, the IC50 at AR-VP16 [2] is less than 1000 nM.
In the case of `N#Cc1ncc(N2C(=O)C3(CCC3)N(c3ccc(OCCN4CCS(=O)(=O)CC4)c(F)c3)C2=S)cc1C(F)(F)F` [Compound 186, 5-(5-(4-(2-(1,1-Dioxidothiomorpholino)ethoxy)-3-fluorophenyl)-8-oxo-6-thioxo-5,7-diazaspiro[3.4]octan-7-yl)-3-(trifluoromethyl)picolinonitrile], the “ARVP16 DNA Binding Assay” value on AR-VP16 [1] was “Yes (Agonist defined as a compound whose Emax in the ARVP16 DNA Binding Assay (Agonist mode) is >20x DMSO control)”. Further, the IC50 on AR-VP16 [2] was less than 1000 nM.
In the same order, the values of `N#Cc1ncc(N2C(=O)C3(CCC3)N(c3ccc(OCCN4CCCCC4)cc3F)C2=S)cc1C(F)(F)F` [Compound 187, 5-(5-(2-Fluoro-4-(2-(piperidin-1-yl)ethoxy)phenyl)-8-oxo-6-thioxo-5,7-diazaspiro[3.4]octan-7-yl)-3-(trifluoromethyl)picolinonitrile] are “No (Agonist defined as a compound whose Emax in the ARVP16 DNA Binding Assay (Agonist mode) is >20x DMSO control)” and less than 1000 nM.
On to `N#Cc1ncc(N2C(=O)C3(CCC3)N(c3ccc(OCCc4ccccc4)c(F)c3)C2=S)cc1C(F)(F)F` [Compound 188, 5-(5-(3-Fluoro-4-phenethoxyphenyl)-8-oxo-6-thioxo-5,7-diazaspiro[3.4]octan-7-yl)-3-(trifluoromethyl)picolinonitrile], for which the “ARVP16 DNA Binding Assay” value at AR-VP16 [1] is “No (Agonist defined as a compound whose Emax in the ARVP16 DNA Binding Assay (Agonist mode) is >20x DMSO control)”. On AR-VP16 [2], this compound showed an IC50 of less than 1000 nM.
As to `N#Cc1ncc(N2C(=O)C3(CCC3)N(c3ccc(OCCc4ncccn4)c(F)c3)C2=S)cc1C(F)(F)F` [Compound 189, 5-(5-(3-Fluoro-4-(2-(pyrimidin-2-yl)ethoxy)phenyl)-8-oxo-6-thioxo-5,7-diazaspiro[3.4]octan-7-yl)-3-(trifluoromethyl)picolinonitrile], the “ARVP16 DNA Binding Assay” value on AR-VP16 [1] was “No (Agonist defined as a compound whose Emax in the ARVP16 DNA Binding Assay (Agonist mode) is >20x DMSO control)”. On AR-VP16 [2], this compound yielded an IC50 of less than 1000 nM.
On to `CN1CCC(Oc2ccc(N3C(=S)N(c4cnc(C#N)c(C(F)(F)F)c4)C(=O)C34CCC4)c(F)c2)CC1` [Compound 190, 5-(5-(2-Fluoro-4-((1-methylpiperidin-4-yl)oxy)phenyl)-8-oxo-6-thioxo-5,7-diazaspiro[3.4]octan-7-yl)-3-(trifluoromethyl)picolinonitrile], for which, at AR-VP16 [1], the “ARVP16 DNA Binding Assay” value is “No (Agonist defined as a compound whose Emax in the ARVP16 DNA Binding Assay (Agonist mode) is >20x DMSO control)”. At AR-VP16 [2], this compound had a half-maximal inhibitory concentration (IC50) of less than 1000 nM.
In the same order, the values of `Cc1cc(N2C(=O)C3(CCC3)N(c3ccc(OC4CCN(C)CC4)cc3)C2=S)cnc1C#N` [Compound 191, 3-Methyl-5-(5-(4-((1-methylpiperidin-4-yl)oxy)phenyl)-8-oxo-6-thioxo-5,7-diazaspiro[3.4]octan-7-yl)picolinonitrile] are “No (Agonist defined as a compound whose Emax in the ARVP16 DNA Binding Assay (Agonist mode) is >20x DMSO control)” and greater than 1000 nM.
